This is an account of results in patent US20090023721A1, “Novel Substituted Tetracyclic Tetrahydrofuran, Pyrrolidine and Tetrahydrothiophene Derivatives and Their Use as a Medicament” (priority 2005, published 2009).

Assay [1] has as its target T1, NET (Rattus norvegicus, UniProt Q9WTR4).
T1 construct: Cortex from rat brain was collected and homogenised; from tissue; host or cells: rat brain cortex membranes
The assay can be described thus: In vitro determination of NET reuptake inhibition ([3H]Nixosetine binding, rat brain cortex membranes). On the procedure: Cortex from rat brain was collected and homogenised using an Ultra-Turrax T25 and a Dual homogeniser in ice-cold homogenising buffer containing Tris, NaCl and KCl (50 mM, 120 mM and 5 mM, respectively, pH 7.4) prior to dilution to an appropriate protein concentration optimised for specific and non-specific binding. […] Membrane-bound activity was detected by filtration through a Packard Filtermate harvester onto GF/B Unifilterplates, washed with ice-cold Tris-HCl buffer, containing NaCl and KCl (50 mM, 120 mM and 4 mM; pH 7.4; 6×0.5 ml). Filters were allowed to dry for 24 h before adding scintillation fluid. Scintillation fluid was allowed to saturate filters for 24 h before counting in a Topcount scintillation counter. Percentage specific bound and competition binding curves were calculated using S-Plus software (Insightful).

In assay [2] the target is T2, human cloned 5-HT2C receptor, expressed in CHO cells (Homo sapiens, UniProt P28335).
T2 construct: expressed in transfected cells; host or cells: CHO cells
T2 sequence (P28335 33-458): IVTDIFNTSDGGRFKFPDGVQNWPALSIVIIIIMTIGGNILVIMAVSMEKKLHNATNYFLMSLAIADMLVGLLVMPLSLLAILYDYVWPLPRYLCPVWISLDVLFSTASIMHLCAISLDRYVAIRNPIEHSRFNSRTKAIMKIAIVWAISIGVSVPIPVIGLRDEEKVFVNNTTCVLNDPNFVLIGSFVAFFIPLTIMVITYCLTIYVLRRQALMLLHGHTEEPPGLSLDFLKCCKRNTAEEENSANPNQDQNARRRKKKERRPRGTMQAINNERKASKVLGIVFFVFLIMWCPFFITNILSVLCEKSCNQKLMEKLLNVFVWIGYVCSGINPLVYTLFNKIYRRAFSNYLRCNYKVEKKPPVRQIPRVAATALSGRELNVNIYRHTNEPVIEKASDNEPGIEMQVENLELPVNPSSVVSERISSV
The assay can be described thus: In vitro radioligand binding affinity for 5-HT2C receptor ([3H]mesulergine). Particulars: for IC50: read-out: h-5HT2C (converted). On the procedure: The interaction of the compounds of Formula (I) with 5-HT2A and 5-HT2C receptors was assessed in in vitro radioligand binding experiments. […] During the incubation, the radioligands bind to the receptor. When equilibrium of binding is reached, the receptor bound radioactivity is separated from the non-bound radioactivity, and the receptor bound activity is counted. The interaction of the test compounds with the receptors is assessed in competition binding experiments. Various concentrations of the test compound are added to the incubation mixture containing the tissue preparation and the radioligand. Binding of the radioligand will be inhibited by the test compound in proportion to its binding affinity and its concentration.

Assay [3] addresses T3, human cloned 5-HT2A receptor, expressed in L929 cells (Homo sapiens, UniProt P28223).
T3 construct: expressed in transfected cells; host or cells: L929 cells
As to the kind of experiment: In vitro radioligand binding affinity for 5-HT2A receptor ([125I]R91150). Particulars: for IC50: read-out: h-5HT2A (converted). The procedure: The interaction of the compounds of Formula (I) with 5-HT2A and 5-HT2C receptors was assessed in in vitro radioligand binding experiments. In general, a low concentration of a radioligand with a high binding affinity for the receptor is incubated with a sample of a tissue preparation enriched in a particular receptor (1 to 5 mg tissue) in a buffered medium (0.2 to 5 ml). During the incubation, the radioligands bind to the receptor. When equilibrium of binding is reached, the receptor bound radioactivity is separated from the non-bound radioactivity, and the receptor bound activity is counted. The interaction of the test compounds with the receptors is assessed in competition binding experiments. Various concentrations of the test compound are added to the incubation mixture containing the tissue preparation and the radioligand. Binding of the radioligand will be inhibited by the test compound in proportion to its binding affinity and its concentration. The affinities of the compounds for the 5-HT2 receptors were measured by means of radioligand binding studies conducted with: (a) human cloned 5-HT2A receptor, expressed in L929 cells using [^125I]R91150 as radioligand and (b) human cloned 5-HT2C receptor, expressed in CHO cells using [^3H]mesulergine as radioligand.

In assay [4] the target is T4, human Dopamine D2L receptor (Homo sapiens, UniProt P14416).
T4 construct: expressed in transfected cells; host or cells: CHO cells (frozen membranes)
As to the kind of experiment: In vitro binding affinity for human D2L receptor ([3H]Spiperone). Particulars: human D2L receptor-transfected CHO cell membranes, [3H]Spiperone; for IC50: read-out: h-D2L (converted). The procedure: Frozen membranes of human Dopamine D2L receptor-transfected CHO cells were thawed, briefly homogenised using an Ultra-Turrax T25 homogeniser and diluted in Tris-HCl assay buffer containing NaCl, CaCl2, MgCl2, KCl (50, 120, 2, 1, and 5 mM respectively, adjusted to pH 7.7 with HCl) to an appropriate protein concentration optimised for specific and non-specific binding. Radioligand [^3H]Spiperone (NEN, specific activity ˜70 Ci/mmol) was diluted in assay buffer at a concentration of 2 nmol/L. Prepared radioligand (50 μl), along with 50 μl of either the 10% DMSO control, Butaclamol (10-6 mol/l final concentration), or compound of interest, was then incubated (30 min, 37° C.) with 400 μl of the prepared membrane solution. Membrane-bound activity was filtered through a Packard Filtermate harvester onto GF/B Unifilterplates and washed with ice-cold Tris-HCl buffer (50 mM; pH 7.7; 6×0.5 ml). Filters were allowed to dry before adding scintillation fluid and counting in a Topcount scintillation counter. Percentage specific bound and competition binding curves were calculated using S-Plus software (Insightful).

[5] abbreviates: human cloned 5-HT2C receptor in CHO cells, [3H]mesulergine.
The mark [6] stands for this setting: human cloned 5-HT2A receptor in L929 cells, [125I]R91150.

pIC50: −log10 of the molar value. Where two headings read alike, the source gives them in different places.

T3 sequence (P28223 whole entry): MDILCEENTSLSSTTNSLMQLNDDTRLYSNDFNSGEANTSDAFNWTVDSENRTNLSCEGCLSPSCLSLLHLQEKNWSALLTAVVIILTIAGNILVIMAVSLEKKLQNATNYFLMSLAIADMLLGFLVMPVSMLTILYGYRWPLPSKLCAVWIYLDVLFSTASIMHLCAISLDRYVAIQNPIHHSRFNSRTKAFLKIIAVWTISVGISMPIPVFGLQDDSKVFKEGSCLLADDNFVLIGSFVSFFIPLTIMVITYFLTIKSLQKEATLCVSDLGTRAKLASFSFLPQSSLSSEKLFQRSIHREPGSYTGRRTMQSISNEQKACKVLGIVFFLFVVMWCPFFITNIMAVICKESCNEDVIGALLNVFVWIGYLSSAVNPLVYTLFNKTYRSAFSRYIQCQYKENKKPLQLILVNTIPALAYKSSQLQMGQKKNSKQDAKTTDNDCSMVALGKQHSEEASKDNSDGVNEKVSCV
T1 sequence (Q9WTR4 1-597): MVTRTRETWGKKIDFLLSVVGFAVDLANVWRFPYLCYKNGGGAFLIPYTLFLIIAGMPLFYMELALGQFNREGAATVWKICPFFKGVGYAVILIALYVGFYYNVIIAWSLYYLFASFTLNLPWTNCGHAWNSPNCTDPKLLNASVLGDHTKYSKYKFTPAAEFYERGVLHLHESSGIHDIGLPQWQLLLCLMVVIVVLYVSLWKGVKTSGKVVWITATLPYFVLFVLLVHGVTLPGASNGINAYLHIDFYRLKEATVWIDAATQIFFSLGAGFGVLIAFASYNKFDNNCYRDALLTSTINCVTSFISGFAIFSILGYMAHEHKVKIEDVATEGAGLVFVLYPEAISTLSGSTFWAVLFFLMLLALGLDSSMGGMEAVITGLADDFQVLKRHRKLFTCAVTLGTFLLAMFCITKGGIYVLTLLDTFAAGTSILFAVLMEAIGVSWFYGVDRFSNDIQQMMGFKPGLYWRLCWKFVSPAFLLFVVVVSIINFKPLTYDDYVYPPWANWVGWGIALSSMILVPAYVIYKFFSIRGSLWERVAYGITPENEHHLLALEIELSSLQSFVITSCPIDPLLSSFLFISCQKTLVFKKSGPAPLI
T4 sequence (P14416 whole entry): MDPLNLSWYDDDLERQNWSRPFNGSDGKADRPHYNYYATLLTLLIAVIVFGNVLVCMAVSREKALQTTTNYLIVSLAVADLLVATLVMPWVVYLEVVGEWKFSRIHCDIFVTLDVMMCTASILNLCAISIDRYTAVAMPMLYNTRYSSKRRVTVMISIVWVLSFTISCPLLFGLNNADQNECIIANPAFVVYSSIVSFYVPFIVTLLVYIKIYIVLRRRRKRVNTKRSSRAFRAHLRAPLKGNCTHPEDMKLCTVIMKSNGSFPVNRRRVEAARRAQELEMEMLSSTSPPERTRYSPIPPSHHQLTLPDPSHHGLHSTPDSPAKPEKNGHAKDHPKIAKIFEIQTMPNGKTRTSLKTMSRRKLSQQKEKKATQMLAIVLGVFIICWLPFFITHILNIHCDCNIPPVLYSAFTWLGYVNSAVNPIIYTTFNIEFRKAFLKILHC

As a reminder, the pIC50 is the IC50 on a negative log10 scale, so that one unit is a factor of ten. Regarding `CN(C)CC1CO[C@@H]2c3cc(F)ccc3Cc3ccccc3[C@@H]12` (mixture of isomers) [compound 47, [(3aR,12bS)-11-fluoro-3,3a,8,12b-tetrahydro-2H-dibenzo[3,4:6,7]cyclohepta[1,2-b]-furan-3-yl]-N,N-dimethylmethanamine], in assay [1], the negative logarithm of the IC50 (pIC50) was 7.96. Besides, the results for the IC50 in assay [2] (setting [5]) and in assay [3] (setting [6]) were 1580 nM and 3800 nM, respectively.
Compound `CN(C)CC1CO[C@H]2c3cc(F)ccc3Cc3ccccc3[C@@H]12` (mixture of isomers) [compound 48, [(3aR,12bR)-11-fluoro-3,3a,8,12b-tetrahydro-2H-dibenzo[3,4:6,7]cyclohepta[1,2-b]-furan-3-yl]-N,N-dimethylmethanamine] showed a pIC50 in assay [1] of 6.65. Besides, the IC50 in assay [2] (setting [5]) was 3020 nM; in assay [3] (setting [6]) it was 6170 nM.
In assay [1], `CN[C@@H]1CO[C@@H]2c3cc(F)ccc3Cc3ccccc3[C@H]2C1` (relative stereo) [compound 35, (3S*,4aR*,13bS*)-12-fluoro-N-methyl-2,3,4,4a,9,13b-hexahydrodibenzo[3,4:6,7]-cyclohepta[1,2-b]pyran-3-amine] gave a negative logarithm of the IC50 (pIC50) of less than 6.00. Further, the IC50 in assay [2] (setting [5]) was 2630 nM.
For the compound `OCCN1CCN(C[C@H]2C[C@@H]3c4ccccc4Cc4ccc(F)cc4[C@H]3N2)CC1` [43a, 2-(4-{[(2R,3aR,12bS)-11-fluoro-1,2,3,3a,8,12b-hexahydrodibenzo[3,4:6,7]cyclohepta-[1,2-b]pyrrol-2-yl]methyl}-1-piperazinyl)ethanol], in assay [1], the pIC50 is less than 5.00. The figures for the IC50 in assay [2] (setting [5]) and in assay [3] (setting [6]) were 407 nM and 427 nM, respectively.
In turn, `CN(CCO)C[C@H]1C[C@@H]2c3ccccc3Cc3ccc(F)cc3[C@H]2N1` [43b, 2-[{[(2R,3aR,12bS)-11-fluoro-1,2,3,3a,8,12b-exahydrodibenzo[3,4:6,7]cyclohepta[1,2-b]pyrrol-2-yl]methyl}(methyl)amino]-ethanol] registered a h-5HT2C in assay [2] (setting [5]) of 7.05. The h-5HT2A in assay [3] (setting [6]) is 7.17. The same compound came in with a h-D2L in assay [4] of 6.36.
On to `CN(C)C[C@H]1C[C@@H]2c3ccccc3Cc3ccc(F)cc3[C@H]2N1C` [compound 5, [(2R,3aR,12bS)-11-fluoro-1-methyl-1,2,3,3a,8,12b-hexahydrodibenzo[3,4:6,7]cyclohepta[1,2-b]pyrrol-2-yl]-N,N-dimethylmethanamine], for which the results for the IC50 in assay [2] (setting [5]), in assay [3] (setting [6]) and in assay [4] were 5.37 nM, 27.5 nM and 132 nM, respectively.
Turning to `O=C1CNC[C@H]2C[C@@H]3c4ccccc4Cc4ccc(F)cc4[C@H]3N12` [compound 12, (5aS,14bR,15aR)-7-fluoro-1,2,3,5a,10,14b,15,15a-octahydro-4H-dibenzo[3′,4′:6′,7′]-cyclohepta[1′,2′:4,5]pyrrolo[1,2-a]pyrazin-4-one], the negative-log IC50 (pIC50) was 5.46 in assay [1] and 7.23 in assay [2]. Moreover, in assay [4], the IC50 is 832 nM.
Take `CN1CC(=O)N2[C@H](C[C@@H]3c4ccccc4Cc4ccc(F)cc4[C@H]32)C1` [compound 13, (5aS,14bR,15aR)-7-fluoro-2-methyl-1,2,3,5a,10,14b,15,15a-octahydro-4H-dibenzo-[3′,4′:6′,7′]cyclohepta[1′,2′:4,5]pyrrolo[1,2-a]pyrazin-4-one]: in assay [1], the “NET Reuptake Inhibition” value is reported as less than 5. The compound also gave a pIC50 in assay [3] of 7.06.
For the compound `OCCN1CCN(C[C@H]2C[C@@H]3c4ccccc4Oc4ccc(F)cc4[C@H]3N2)CC1` [compound 19, 2-(4-{[(2R,3aR,12bS)-11-fluoro-2,3,3a,12b-tetrahydro-1H-dibenzo[2,3 :6,7]oxepino-[4,5-b]pyrrol-2-yl]methyl}-1-piperazinyl)ethanol], in assay [1], the pIC50 is less than 5.00. The results for the IC50 in assay [2] (setting [5]) and in assay [4] were 4270 nM and 112 nM, respectively.
As to `OC1CCN(C[C@H]2C[C@@H]3c4ccccc4Oc4ccc(F)cc4[C@H]3N2)C1` (stereo partly drawn) [compound 20, 1-{[(2R,3aR,12bS)-11-fluoro-2,3,3a,12b-tetrahydro-1H-dibenzo[2,3:6,7]oxepino[4,5-b]pyrrol-2-yl]methyl}-3-pyrrolidinol], the negative logarithm of the IC50 (pIC50) in assay [1] is 6.38. The results for the IC50 in assay [2] (setting [5]) and in assay [4] were 110 nM and 355 nM, respectively.
Regarding `CN(C)C[C@@H]1C[C@@H]2c3ccccc3Cc3ccc(F)cc3[C@H]2S1(=O)=O` [compound 22, [(2S,3aR,12bS)-11-fluoro-1,1-dioxido-3,3a,8, 12b-tetrahydro-2H-dibenzo[3,4:6,7]-cyclohepta[1,2-b]thien-2-yl]-N,N-dimethylmethanamine], in assay [1], the pIC50 was 5.32. Besides, the IC50 in assay [2] (setting [5]) was 1350 nM; in assay [3] (setting [6]), 8510 nM.
The compound `CN(C)C[C@@H]1C[C@@H]2c3ccccc3Cc3ccc(F)cc3[C@H]2[S@+]1[O-]` [compound 25, [(2S,3aR,12bS)-11-fluoro-1-oxido-3,3a,8,12b-tetrahydro-2H-dibenzo[3,4:6,7]cyclohepta[1,2-b]thien-2-yl]-N,N-dimethylmethanamine] showed a negative logarithm of the IC50 (pIC50) in assay [1] of 5.54. For the same compound, the IC50 was 2240 nM in assay [2] (setting [5]) and more than 10000 nM in assay [3] (setting [6]).
As for `CN(C)C[C@H]1C[C@@H]2c3ccccc3Cc3ccc(F)cc3[C@H]2[S@+]1[O-]` [compound 28, [(2R,3aR,12bS)-11-fluoro-1-oxido-3,3a,8,12b-tetrahydro-2H-dibenzo[3,4:6,7]cyclohepta[1,2-b]thien-2-yl]-N,N-dimethylmethanamine], the pIC50 in assay [1] is 6.84. Also, the values for the IC50 in assay [2] (setting [5]) and in assay [3] (setting [6]) were 1780 nM and 7760 nM, respectively.
Compound `Fc1ccc2c(c1)[C@H]1N[C@@H](CN3CCOCC3)C[C@@H]1c1ccccc1C2` [compound 42, (2R,3aR,12bS)-11-fluoro-2-(4-morpholinylmethyl)-1,2,3,3a,8,12b-hexahydrodibenzo-[3,4:6,7]cyclohepta[1,2-b]pyrrole] gave a pIC50 in assay [1] of 5.26. Also, the IC50 in assay [2] (setting [5]) was 550 nM; in assay [3] (setting [6]) it was 631 nM.
In assay [1], `COC(=O)N1[C@@H](CN(C)C)CC[C@@H]2c3ccccc3Cc3ccc(F)cc3[C@H]21` [compound 45, Methyl (2R,4aR,13bS)-2-[(dimethylamino)methyl]-12-fluoro-2,3,4,4a,9,13b-hexahydro-1H-dibenzo[3,4:6,7]cyclohepta[1,2-b]pyridine-1-carboxylate] showed a pIC50 of 6.10. Moreover, the values for the IC50 in assay [2] (setting [5]) and in assay [4] were 2240 nM and more than 10000 nM, respectively.
